Assay: xn = mol fraction of the nth substance listed

c1ccccc1 + CCCO
Conditions	viscosity [mPa·s]
293.15 K, 101 kPa, x1 = 0.7	0.7259
295.15 K, 101 kPa, x2 = 0.0129	0.6231
295.15 K, 101 kPa, x2 = 0.01297	0.6234
295.15 K, 101 kPa, x2 = 0.02571	0.6203
295.15 K, 101 kPa, x2 = 0.0258	0.6203
295.15 K, 101 kPa, x2 = 0.02588	0.6203
295.15 K, 101 kPa, x2 = 0.03494	0.6193
295.15 K, 101 kPa, x2 = 0.04358	0.6193
295.15 K, 101 kPa, x2 = 0.06103	0.6204
295.15 K, 101 kPa, x2 = 0.1016	0.6265
295.15 K, 101 kPa, x2 = 0.2458	0.6758
295.15 K, 101 kPa, x2 = 0.5664	0.9778
295.15 K, 101 kPa, x2 = 0.9204	1.808
298.15 K, 100 kPa, x2 = 0.059	0.6108
298.15 K, 100 kPa, x2 = 0.1169	0.6226
298.15 K, 100 kPa, x2 = 0.2295	0.6135
298.15 K, 100 kPa, x2 = 0.2843	0.6582
298.15 K, 100 kPa, x2 = 0.3733	0.7116
298.15 K, 100 kPa, x2 = 0.5437	0.8989
298.15 K, 100 kPa, x2 = 0.6252	1.017
298.15 K, 100 kPa, x2 = 0.7044	1.166
298.15 K, 100 kPa, x2 = 0.7814	1.289
298.15 K, 100 kPa, x2 = 0.8563	1.469
298.15 K, 100 kPa, x2 = 0.9291	1.719
298.15 K, 101 kPa, x1 = 0.062	1.707
298.15 K, 101 kPa, x1 = 0.1398	1.471
298.15 K, 101 kPa, x1 = 0.295	1.132
298.15 K, 101 kPa, x1 = 0.388	0.988
298.15 K, 101 kPa, x1 = 0.4349	0.565
298.15 K, 101 kPa, x1 = 0.4661	0.887
298.15 K, 101 kPa, x1 = 0.5335	0.394
298.15 K, 101 kPa, x1 = 0.5337	0.805
298.15 K, 101 kPa, x1 = 0.6049	0.741
298.15 K, 101 kPa, x1 = 0.6086	0.4578
298.15 K, 101 kPa, x1 = 0.7128	0.657
298.15 K, 101 kPa, x1 = 0.806	0.626
298.15 K, 101 kPa, x1 = 0.89	0.604
298.15 K, 101.3 kPa, x1 = 0.1571	1.435
298.15 K, 101.3 kPa, x1 = 0.3573	1.018
298.15 K, 101.3 kPa, x1 = 0.5287	0.797
298.15 K, 101.3 kPa, x1 = 0.7516	0.637
298.15 K, 101.33 kPa, x1 = 0.1571	1.435
298.15 K, 101.33 kPa, x1 = 0.2757	1.167
298.15 K, 101.33 kPa, x1 = 0.3573	1.018
298.15 K, 101.33 kPa, x1 = 0.5287	0.797
298.15 K, 101.33 kPa, x1 = 0.6446	0.703
298.15 K, 101.33 kPa, x1 = 0.7516	0.637
298.15 K, 101.33 kPa, x1 = 0.8737	0.599
298.15 K, 101.33 kPa, x1 = 0.9369	0.592
298.15 K, 101.33 kPa, x2 = 0.2	0.622
303.15 K, 101 kPa, x1 = 0.062	1.522
303.15 K, 101 kPa, x1 = 0.1398	1.319
303.15 K, 101 kPa, x1 = 0.295	1.021
303.15 K, 101 kPa, x1 = 0.388	0.892
303.15 K, 101 kPa, x1 = 0.4661	0.808
303.15 K, 101 kPa, x1 = 0.5337	0.737
303.15 K, 101 kPa, x1 = 0.6049	0.68
303.15 K, 101 kPa, x1 = 0.7128	0.609
303.15 K, 101 kPa, x1 = 0.806	0.58
303.15 K, 101 kPa, x1 = 0.89	0.566
308.15 K, 100 kPa, x2 = 0.059	0.5422
308.15 K, 100 kPa, x2 = 0.1169	0.5507
308.15 K, 100 kPa, x2 = 0.2295	0.5825
308.15 K, 100 kPa, x2 = 0.2843	0.5616
308.15 K, 100 kPa, x2 = 0.3733	0.6014
308.15 K, 100 kPa, x2 = 0.5437	0.7483
308.15 K, 100 kPa, x2 = 0.6252	0.8508
308.15 K, 100 kPa, x2 = 0.7044	0.9663
308.15 K, 100 kPa, x2 = 0.7814	1.098
308.15 K, 100 kPa, x2 = 0.8563	1.267
308.15 K, 100 kPa, x2 = 0.9291	1.405
308.15 K, 101 kPa, x1 = 0.062	1.369
308.15 K, 101 kPa, x1 = 0.1398	1.182
308.15 K, 101 kPa, x1 = 0.295	0.921
308.15 K, 101 kPa, x1 = 0.388	0.81
308.15 K, 101 kPa, x1 = 0.4661	0.736
308.15 K, 101 kPa, x1 = 0.5337	0.678
308.15 K, 101 kPa, x1 = 0.6049	0.63
308.15 K, 101 kPa, x1 = 0.7128	0.566
308.15 K, 101 kPa, x1 = 0.806	0.541
308.15 K, 101 kPa, x1 = 0.89	0.527
308.15 K, 101.3 kPa, x1 = 0.1571	1.155
308.15 K, 101.3 kPa, x1 = 0.3573	0.834
308.15 K, 101.3 kPa, x1 = 0.5287	0.668
308.15 K, 101.3 kPa, x1 = 0.7516	0.552
308.15 K, 101.33 kPa, x1 = 0.1571	1.155
308.15 K, 101.33 kPa, x1 = 0.3573	0.834
308.15 K, 101.33 kPa, x1 = 0.5287	0.668
308.15 K, 101.33 kPa, x1 = 0.7516	0.552
313.15 K, 101 kPa, x1 = 0.062	1.225
313.15 K, 101 kPa, x1 = 0.1398	1.061
313.15 K, 101 kPa, x1 = 0.295	0.835
313.15 K, 101 kPa, x1 = 0.388	0.739
313.15 K, 101 kPa, x1 = 0.4661	0.674
313.15 K, 101 kPa, x1 = 0.5337	0.623
313.15 K, 101 kPa, x1 = 0.6049	0.582
313.15 K, 101 kPa, x1 = 0.7	0.5283
313.15 K, 101 kPa, x1 = 0.7128	0.528
313.15 K, 101 kPa, x1 = 0.806	0.503
313.15 K, 101 kPa, x1 = 0.89	0.493
318.15 K, 101 kPa, x1 = 0.062	1.103
318.15 K, 101 kPa, x1 = 0.1398	0.956
318.15 K, 101 kPa, x1 = 0.295	0.76
318.15 K, 101 kPa, x1 = 0.388	0.676
318.15 K, 101 kPa, x1 = 0.4661	0.617
318.15 K, 101 kPa, x1 = 0.5337	0.572
318.15 K, 101 kPa, x1 = 0.6049	0.539
318.15 K, 101 kPa, x1 = 0.7128	0.493
318.15 K, 101 kPa, x1 = 0.806	0.47
318.15 K, 101 kPa, x1 = 0.89	0.463
323.15 K, 101.33 kPa, x2 = 0.2	0.44
